The values that follow come from patent US20230373934A1, “ANDROGEN RECEPTOR MODULATORS AND METHODS FOR THEIR USE” (ESSA Pharma, Inc., priority 2022, published 2023).

A short description of data set [1]: Microsomal stability assay, liver microsome half-life (human). To be noted: pH 7.4; human liver microsomes 0.5 mg/mL + NADPH, 1 μM compound, 37° C; read-out: Liver microsome + NADPH T½ (min) Human. Type of data set: in vitro ADME. An excerpt:
(§1) Microsomal Stability Assay: Microsomal stability assay is a widely used in vitro model to characterize the metabolic conversion by phase I enzymes, such as cytochrome P450 (CYP) enzymes. Since metabolism is known to be highly variable in different species, microsomal stability assay is commonly run in multiple species. Metabolic stability of testing compound can be evaluated using human, rat, mouse, or other animal liver or intestine microsomes to predict intrinsic clearance.
(§2) The assay was carried out in 96-well microtiter plates at 37° C. Reaction mixtures (25 μL) contained a final concentration of 1 μM test compound, 0.5 mg/mL liver microsomes protein, and 1 mM NADPH and/or 1 mM UDPGA (with alamethicin) in 100 mM potassium phosphate, pH 7.4 buffer with 3 mM MgCl2. The incubation was done with N=1, but duplicate incubation at each time point can be prepared if necessary. At each of the time points (for example, 0, 15, 30, and 60 minutes), 150 μL of quench solution (100% acetonitrile with 0.1% formic acid) with internal standard was transferred to each well. Besides the zero minute controls, mixtures containing the same components except the NADPH can also be prepared as the negative control. Verapamil was included as a positive control to verify assay performance. Plates were sealed, vortexed, and centrifuged at 4° C. for 15 minutes at 4000 rpm. The supernatant is transferred to fresh plates for LC/MS/MS analysis.
(§3) Summarized conditions: [Compound]=1 μM, [LM]=0.5 mg/mL, [NADPH]=1 mM and/or [UDPGA]=1 mM, Buffer=100 mM Potassium Phosphate, pH 7.4 with 3 mM MgCl2, Time=0, 15, 30, and 60 min, and Temperature=37° C.
(§4) All samples were analyzed on LC/MS/MS using an AB Sciex API 4000 instrument, coupled to a Shimadzu LC-20AD LC Pump system. Analytical samples were separated using a Waters Atlantis T3 dC18 reverse phase HPLC column (20 mm×2.1 mm) at a flow rate of 0.5 mL/min. The mobile phase consisted of 0.1% formic acid in water (solvent A) and 0.1% formic acid in 100% acetonitrile (solvent B).
(§5) The extent of metabolism is calculated as the disappearance of the test compound, compared to the 0-min time incubation. Initial rates are calculated for the compound concentration and used to determine half-life (t1/2).
For orientation: Liver microsomes are vesicles of endoplasmic reticulum, rich in cytochrome P450 enzymes.

Data set [2] in a line: Microsomal stability assay, liver microsome half-life (mouse). The following applies: pH 7.4; mouse liver microsomes 0.5 mg/mL + NADPH, 1 μM compound, 37° C; read-out: Liver microsome + NADPH T½ (min) Mouse. Type of data set: in vitro ADME.
From the text: as §1, §2, §3, §4, §5

The nature of data set [3]: Microsomal stability assay, liver microsome half-life (monkey). Type of data set: in vitro ADME. The following applies: pH 7.4; monkey liver microsomes 0.5 mg/mL + NADPH, 1 μM compound, 37° C; read-out: Liver microsome + NADPH T½ (min) Monkey.
From the text: as §1, §2, §3, §4, §5

Data set [4] can be described thus: Microsomal stability assay, liver microsome half-life (rat). The following applies: pH 7.4; rat liver microsomes 0.5 mg/mL + NADPH, 1 μM compound, 37° C; read-out: Liver microsome + NADPH T½ (min) Rat. Type of data set: in vitro ADME.
From the text: as §1, §2, §3, §4, §5

Data set [5] has as its target T1, androgen receptor (AR) (Homo sapiens, UniProt P10275, T878A).
T1 construct: endogenous in cells; host or cells: LNCaP
T1 sequence (P10275 1-920 T878A): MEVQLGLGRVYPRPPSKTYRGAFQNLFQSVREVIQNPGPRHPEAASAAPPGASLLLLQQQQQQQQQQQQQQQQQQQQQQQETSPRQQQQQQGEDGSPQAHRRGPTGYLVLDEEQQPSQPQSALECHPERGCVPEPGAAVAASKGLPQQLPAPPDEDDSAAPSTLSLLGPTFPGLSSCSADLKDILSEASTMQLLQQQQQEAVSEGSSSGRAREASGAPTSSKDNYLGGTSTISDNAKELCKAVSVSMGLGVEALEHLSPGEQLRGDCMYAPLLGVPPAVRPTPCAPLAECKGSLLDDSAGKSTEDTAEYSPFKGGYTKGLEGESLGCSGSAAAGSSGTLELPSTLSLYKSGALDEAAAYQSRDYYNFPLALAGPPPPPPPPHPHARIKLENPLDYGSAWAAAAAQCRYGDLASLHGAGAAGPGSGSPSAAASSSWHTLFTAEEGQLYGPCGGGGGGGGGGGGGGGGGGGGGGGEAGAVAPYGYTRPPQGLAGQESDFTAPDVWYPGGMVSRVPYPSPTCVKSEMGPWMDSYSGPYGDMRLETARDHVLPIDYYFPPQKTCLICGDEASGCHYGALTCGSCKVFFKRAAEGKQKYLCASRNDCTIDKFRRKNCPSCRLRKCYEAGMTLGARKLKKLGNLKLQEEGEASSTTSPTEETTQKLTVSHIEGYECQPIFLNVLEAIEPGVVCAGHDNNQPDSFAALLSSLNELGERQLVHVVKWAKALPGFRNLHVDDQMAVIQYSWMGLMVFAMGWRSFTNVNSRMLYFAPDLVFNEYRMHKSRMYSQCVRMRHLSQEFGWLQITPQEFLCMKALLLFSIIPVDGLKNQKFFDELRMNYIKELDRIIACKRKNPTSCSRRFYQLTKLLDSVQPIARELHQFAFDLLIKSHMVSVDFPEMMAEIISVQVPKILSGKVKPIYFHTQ
Description: Androgen-induced PSA-luciferase assay, Luciferase Assay A (LNCaP transiently transfected with PSA (6.1 kb)-luciferase reporter). Type of data set: cell-based. The following applies: LNCaP cells, 1 h pretreatment, R1881 (1 nM) 24 h, read-out: PSA-Luc IC50 Range. A digest of the protocol: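 LNCaP cells transfected 24 h with PSA (6.1 kb)-luciferase reporter, pretreated 1 h with compound, then stimulated 24 h with R1881 (1 nM). Firefly luminescence in lysates normalized to protein content; IC50 from activity relative to R1881-induced vehicle control.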

Data set [6] is described as follows: Microsomal stability assay, liver microsome half-life (dog). To be noted: pH 7.4; dog liver microsomes 0.5 mg/mL + NADPH, 1 μM compound, 37° C; read-out: Liver microsome + NADPH T½ (min) Dog. Type of data set: in vitro ADME.
From the text: as §1, §2, §3, §4, §5

Each structure is given as a SMILES string. pIC50: −log10 of the molar value.

The pIC50 is the negative decadic logarithm of the IC50, by convention in mol/L.

As to `CN(c1ccc(-c2ccc3nc(NS(C)(=O)=O)cnc3c2)cc1)c1cc(Cl)c(OC2CC2)c(C#N)c1` [Compound A164, N-(6-(4-((3-chloro-5-cyano-4-cyclopropoxyphenyl)(methyl)amino)phenyl)quinoxalin-2-yl)methanesulfonamide], the half-life at 1 μM in data set [1], in data set [2], in data set [3], in data set [4] and in data set [6] was over 120 min each time. For the same compound, in data set [5], the pIC50 is 5.70 to 6.30.

Consider `CC(C)(c1ccc(-c2cnc(N3CC(NS(C)(=O)=O)C3)cn2)cc1)c1cc(Cl)c(OCCCl)c(C#N)c1` [Compound A37], for which the half-life at 1 μM in data set [1] was over 120 min; in data set [2], over 120 min; in data set [3], 32 min; in data set [4], over 120 min; in data set [6], over 120 min. Also, in data set [5], the pIC50 was over 6.30.

On to `CCN(c1ccc(-c2ccc3nc(NS(C)(=O)=O)cnc3c2)cc1)c1cc(Cl)c(OCCCl)c(C#N)c1` [Compound A82], for which the half-life at 1 μM in data set [1], in data set [2], in data set [3], in data set [4] and in data set [6] was over 120 min in each case. The pIC50 in data set [5] is over 6.30.

As for `CC(C)(c1ccc(-c2cnn(C34CC(NS(C)(=O)=O)(C3)C4)c2)cc1)c1cc(Cl)c(OCCCl)c(C#N)c1` [Compound A75], the half-life at 1 μM in data set [1], in data set [2], in data set [3], in data set [4] and in data set [6] was over 120 min throughout. Also, the negative-log IC50 (pIC50) in data set [5] was 5.70 to 6.30.

On to `CN(c1ccc(-c2ccc3nc(NS(C)(=O)=O)cnc3c2)cc1)c1cc(Cl)c(OCCCl)c(C#N)c1` [Compound A81], for which the half-life at 1 μM in data set [1], in data set [2], in data set [3], in data set [4] and in data set [6] was over 120 min throughout. The pIC50 in data set [5] was over 6.30.

Regarding `CS(=O)(=O)Nc1cnc2cc(-c3ccc(N(c4cc(Cl)c(OCCCl)c(C#N)c4)C4CC4)cc3)ccc2n1` [Compound A80, N-(6-(4-((3-chloro-4-(2-chloroethoxy)-5-cyanophenyl)(cyclopropyl)amino)phenyl)quinoxalin-2-yl)methanesulfonamide], the half-life at 1 μM in data set [1] was over 120 min; in data set [2], 96 min; in data set [3], over 120 min; in data set [4], over 120 min; in data set [6], over 120 min. Also, the pIC50 in data set [5] is over 6.30.

Turning to `CS(=O)(=O)Nc1cnc2cc(-c3ccc(Oc4cc(Cl)c(N5CCOCC5)c(C#N)c4)cc3)ccc2n1` [Compound A83], the half-life at 1 μM in data set [1], in data set [2], in data set [3], in data set [4] and in data set [6] was over 120 min each time. In data set [5], the pIC50 is 5.70 to 6.30.

Consider `COc1c(Cl)cc(C(C)(C)c2ccc(OCc3ccnc(NS(C)(=O)=O)n3)cc2)cc1C#N` [Compound A17, N-(4-((4-(2-(3-chloro-5-cyano-4-methoxyphenyl)propan-2-yl)phenoxy)methyl)pyrimidin-2-yl)methanesulfonamide], for which the half-life at 1 μM in data set [1], in data set [2], in data set [3], in data set [4] and in data set [6] was over 120 min throughout. For the same compound, the pIC50 in data set [5] was 5.70 to 6.30.

As for `CC(C)(c1ccc(-c2cnn(CCNS(C)(=O)=O)c2)cc1)c1cc(Cl)c(OCCCl)c(C#N)c1` [Compound A12], the half-life at 1 μM in data set [1] is 82 min; in data set [2], over 120 min; in data set [3] it was 19 min; in data set [4], 72 min; in data set [6], over 120 min. Also, in data set [5], the pIC50 was 5.70 to 6.30.

Turning to `CS(=O)(=O)Nc1cnc2cc(-c3ccc(Oc4cc(Cl)c(OCC(F)(F)F)c(C#N)c4)cc3)ccc2n1` [Compound A98], the half-life at 1 μM in data set [1], in data set [2], in data set [3], in data set [4] and in data set [6] was over 120 min in each case. For the same compound, the negative-log IC50 (pIC50) in data set [5] is 5.70 to 6.30.

`CC(C)(c1ccc(-c2cnn([C@H]3C[C@H](NS(C)(=O)=O)C3)c2)cc1)c1cc(Cl)c(OCCCl)c(C#N)c1` [Compound A44, N-((1r,3r)-3-(4-(4-(2-(3-chloro-4-(2-chloroethoxy)-5-cyanophenyl)propan-2-yl)phenyl)-1H-pyrazol-1-yl)cyclobutyl)methanesulfonamide]: the half-life at 1 μM was over 120 min in data set [1]; over 120 min in data set [2]; 117 min in data set [3]; 112 min in data set [4]; over 120 min in data set [6]. The pIC50 in data set [5] was over 6.30.

For the compound `CS(=O)(=O)Nc1ccc2cc(-c3ccc(Oc4cc(Cl)c(OCCCl)c(C#N)c4)cc3)cnc2n1` [Compound A24], the half-life at 1 μM in data set [1] was over 120 min; in data set [2], over 120 min; in data set [3], over 120 min; in data set [4] it was over 120 min; in data set [6] it was 78 min. The pIC50 in data set [5] is 5.70 to 6.30.

On to `CS(=O)(=O)Nc1cnc2cc(-c3ccc(Oc4cc(Cl)c(OC5CCC5)c(C#N)c4)cc3)ccc2n1` [Compound A78], for which the half-life at 1 μM in data set [1], in data set [2], in data set [3], in data set [4] and in data set [6] was over 120 min each time. The pIC50 in data set [5] is 5.70 to 6.30.
